pKi: −log10 of the molar value. “And” between values parts separate entries of the source, which are not always exact repeats. Identical values can stand only once.

The target in the assay is Glutamate receptor ionotropic, NMDA 1 (Rattus norvegicus, UniProt P35439).
Regarding `O=C(O)c1cccc(C(=O)O)n1` [Dipicolinate], the pKi is less than 5.00.

As to `N[C@H](CCCP(=O)(O)O)C(=O)O` [CB3371309], the pKi is 6.46 and 6.40. The figure for `NC(CCCCCP(=O)(O)O)C(=O)O` (stereo not drawn) [DL-AP7] is 6.05 and 5.96. With `N[C@@H](Cn1oc(=O)[nH]c1=O)C(=O)O` [2-amino-3-(3,5-dioxo[1,2,4]oxadiazolidin-2-yl)propionic acid], the pKi is less than 5.00. The figure for `O=C(O)c1cccnc1C(=O)O` [pyridine-2,3-dicarboxylic acid] is less than 5.00; for `N[C@H](CC(=O)O)C(=O)O` it is 6.10 and 6.05. In turn, `CCOC(=O)CC[C@H](N)C(=O)OCC` [glutamic acid diethyl ester] had a pKi of less than 5.00. In the case of `N[C@@H](CC(=O)O)C(=O)O` [L-Aspartic acid, 2], the pKi was 5.85 and 5.80. With `O=C(O)[C@@H]1C[C@H](CP(=O)(O)O)CCN1` [Selfotel] the figure was 6.85; with `O=C(O)[C@H]1CN(CCCP(=O)(O)O)CCN1` [CPP], 6.66 and 6.82. The figure for `CN[C@H](CC(=O)O)C(=O)O` [NMDA] is 5.39 and 5.25.

For the origin of these results see BindingDB's records for doi:10.1111/j.1476-5381.1988.tb11723.x (Ciba-Geigy, 1988).
